{
  "source": "patent US20100112099A1",
  "about": "“PHYTOCHEMICAL COMPOSITIONS AND METHODS FOR ACTIVATING AMP-KINASE” (METAPROTEOMICS, LLC, priority 2008, published 2010)",
  "data": [
    {"tested_on": "AMPK", "assay": "AMPK activation (pT172-AMPK immunoassay) in C2C12 myocytes", "type": "cell-based, mouse", "conditions": "1 mM AICAR, 30 min, average over ten independent assays, 95% CI=1.26-2.21", "method": "(§1) The Model—The C2C12 myocyte model is commonly used to study the potential effects of compounds on muscle tissue in vitro.\n(§2) Cell culture—Mouse C2C12 myoblasts were obtained from American Type Culture Collection (Manassas, Va.), and were maintained in Dulbecco's modified Eagle's medium (DMEM) supplemented with 10% fetal bovine serum at 37° C. under a humidified atmosphere of 5% CO2.\n(§3) C2C12 cells were seeded at an initial density of 6×10^4 cells/cm^2 in 24-well plates. For two days, the cells were allowed grow to reach confluence. Following confluence, the cells were forced to differentiate into myocytes by culturing in DMEM supplemented with 2% horse serum for seven days.\n(§4) Treatment with AICAR—On Day 8 to 10 post differentiation, C2C12 myocytes were incubated in serum-free DMEM plus 0.5% BSA (bovine serum albumin) for three hours. Next, AICAR (Cell Signal, Danvers, Mass.) was dissolved in phosphate buffered saline (PBS) and added to the culture medium to achieve concentrations of 1 mM per column (4 replicates) for 30 min at 37° C.\n(§5) Measuring activated AMPKα—pT^172-AMPK was quantified using the Biosource AMPKa Immunoassay Kit (Camarillo, Calif.) without modification. Protein content of the cell lysates was determined with the Active Motif fluorescent protein assay reagent (Carlsbad Calif., Hoefelschweiger, B. K., Duerkop, A., and Wolfbeis, O, S, Novel type of general protein assay using a chromogenic and fluorogenic amine-reactive probe. Anal Biochem 2005, 344, 122-9). A Packard Fluorocount spectrofluorometer (Model#BF10000, Meridan, Conn.) was used for protein determination and a MEL312e BIO-KINETICS READER (Bio-Tek Instruments, Winooski, Vt.) was used for quantification of pT^172-AMPK.\n(§6) Calculation of relative activation of AMPK —pT^172-AMPK was computed per mg lysate protein and then normalized to the dimethyl sulfoxide (DMSO) negative controls. For statistical comparisons, 95% confidence intervals were computed (Excel, Microsoft, Redman, Wash.).\n(§7) The Model—The C2C12 murine myocyte model as described in Example 1 was used.\n(§8) Chemicals, Cell Culture and Treatment—Chemicals, cell culture procedures, methods and statistical procedures used were as noted in Example 1.\n(§9) Test Materials—Phytochemicals or botanical extracts as described in Table 1 were used as the test materials and dosed at 25 μglmL. The concentration for the positive control AICAR run concurrently was 1.0 mM (338 μg/mL).\n(§10) The Model—The C2C12 murine myocyte model as described in Example 1 was used in this example.\n(§11) Test Materials—Botanical extracts Ginger Extract (Suan Farma, Hackensack, N.J.), Ginger Root Powder (BI Nutraceuticals, Long Beach, Calif.), and Ginger Powdered Extract 6:1, Zingiber officinale (Draco, San Jose, Calif.) were used as the test materials and dosed at 25 μg/mL. The concentration for the positive control AICAR was 1.0 mM (338 μg/mL).", "units": {"increase of pT172-AMPK relative to the DMSO negative controls": "fold"}, "values": [
      {"compound": "NC(=O)c1ncn([C@@H]2O[C@H](CO)[C@@H](O)[C@H]2O)c1N", "note": "[AICAR, 5-Aminoimidazole-4-carboxamide ribonucleoside, reference compound]", "increase of pT172-AMPK relative to the DMSO negative controls": 1.67}
    ]},
    {"tested_on": "AMPK", "assay": "AMPK activation (pT172-AMPK immunoassay) in C2C12 myocytes", "type": "cell-based, mouse", "conditions": "test material 25 μg/mL, pT172-AMPK per mg lysate protein normalized to DMSO negative controls", "method": "as §1, §2, §3, §4, §5, §6, §7, §8, §9, §10, §11", "values": [
      {"compound": "CC(C)C[C@H](N)C(=O)O", "note": "[L-Leucine]", "pAMPK/AMPK.": 1.29},
      {"compound": "CC(C)=CCC1=C(O)C(C(=O)CC(C)C)=C(O)C(CC=C(C)C)(CC=C(C)C)C1=O", "note": "[Lupulone]", "pAMPK/AMPK.": 1.63},
      {"compound": "Chromium polynicotinate", "pAMPK/AMPK.": 1.59},
      {"compound": "CNCC(O)c1ccc(O)cc1", "note": "(stereo not drawn) [Synephrine]", "pAMPK/AMPK.": 2.64},
      {"compound": "COc1ccc2cc3[n+](cc2c1OC)CCc1cc2c(cc1-3)OCO2", "note": "[Berberine]", "pAMPK/AMPK.": 1.26},
      {"compound": "CCCCC[C@H](O)CC(=O)CCc1ccc(O)c(OC)c1", "note": "[6-Gingerol]", "pAMPK/AMPK.": 3.52},
      {"compound": "COc1cc(O)c(CC=C(C)C)c(O)c1C(=O)/C=C/c1ccc(O)cc1", "note": "[Xanthohumol]", "pAMPK/AMPK.": 1.55},
      {"compound": "Oc1ccc(C=Cc2cc(O)cc(O)c2)cc1", "note": "[Resveratrol]", "pAMPK/AMPK.": 1.25}
    ]}
  ]
}
